{"source": "patent US8686016B2", "about": "“Schweinfurthins and uses thereof” (The United States of America, as represented by the …, priority 2009, dated 2014)", "key": {"[1]": {"system": "phosphorylation of Ser 19 on myosin light chain 2 (MLC2)", "assay": "Phospho-myosin light chain 2 immunostaining, KR158", "assay_type": "cell-based, mouse", "details": "KR158 cells treated with SA and EGF", "description": "(§1) Cell Morphology Assays and Confocal Microscopy: To assay cytoskeleton morphology, KR158 cells, mouse primary astrocytes, KR158 clones expressing the NF1-GRD constructs, K14553 cells, and A549 were seeded to cover slips and allowed to reattach overnight. Cells were treated for 18 hours with either the indicated concentrations of SA, or the vehicle control DMSO. The cover slips were fixed in 3.7% paraformaldehyde, permeablized in 0.1% Triton-X100, and stained with Alexa Fluor 488-phalloidin (Invitrogen, Carlsbad, Calif., USA) to detect actin and cells were mounted in Prolong Antifade containing DAPI (Invitrogen) to stain nuclei. The cells were imaged on a LSM510 confocal microscope (Carl Zeiss Inc., Jena, Germany). For phospho-myosin light chain 2 (MLC) detection, cells were seeded to coverslips as described above. Cells were serum starved in 0.5% FBS and SA or DMSO vehicle control for 18 hours, and then pulsed with 10 ng/mL EGF (Invitrogen) for 5 min. […] Actin structures were monitored continuously over a 16 hr period using confocal microscopy equipped with a growth chamber (37° C., humidified atmosphere and 5% CO2). […]"}, "MLC phosphorylation": {"system": "MLC phosphorylation", "assay": "Phospho-myosin light chain immunostaining, MPNST cell lines", "assay_type": "cell-based, mouse", "description": "as §1"}, "NCI 60-cell line panel": {"system": "NCI 60-cell line panel", "assay": "NCI 60 cell line assay", "assay_type": "cell-based, human"}, "SNB-75": {"system": "SNB-75", "assay": "NCI60 cell line response to SA, SNB-75", "assay_type": "cell-based, human", "details": "SNB-75, doubling time 62.8 hours"}, "[2]": {"system": "NF1-GRD expressing KR158 clones", "assay": "Cell morphology / actin confocal microscopy, NF1-GRD KR158", "assay_type": "cell-based, mouse", "description": "Constructs and Transfections: NF1-GRD retroviral constructs were obtained from Indiana University. Cells transduced with the NF1-GRD construct or PMSCV empty vector control as previously described (Hiatt et al., J. Biol. Chem., 2001, 276:7240-5) were maintained in 1 μg/mL puromycin (Sigma).\nas §1, with “above.” for “above. Cells were serum starved in 0.5% FBS and SA or DMSO vehicle control for 18 hours, and then pulsed with 10 ng/mL EGF (Invitrogen) for 5 min.”"}, "SF-268": {"system": "SF-268", "assay": "NCI60 cell line response to SA, SF-268", "assay_type": "cell-based, human", "details": "SF-268, doubling time 33.1 hours"}}, "data": [{"compound": "CC(C)=CCC/C(C)=C/Cc1c(O)cc(/C=C/c2cc(O)c3c(c2)C[C@@H]2C(C)(C)[C@H](O)[C@H](O)C[C@@]2(C)O3)cc1O", "note": "[SA, Schweinfurthin A]", "values": [{"measurement": "MLC phosphorylation (Ser 19)", "setting": "[1]", "result": "dose dependent decrease of MLC phosphorylation"}, {"measurement": "MLC phosphorylation", "setting": "MLC phosphorylation", "result": "reduced MLC phosphorylation"}, {"measurement": "selectivity", "setting": "NCI 60-cell line panel", "result": 1000, "unit": "fold"}, {"measurement": "differential cytotoxicity", "setting": "NCI 60-cell line panel; NCI 60-cell line panel", "result": "significant differential cytotoxicity"}, {"measurement": "logGI50", "setting": "SNB-75", "result": "−7.82"}, {"measurement": "actin structures", "setting": "[2]", "result": "did not change"}, {"measurement": "logGI50", "setting": "SF-268", "result": "−5.62"}]}]}
